Measured values from patent publication US4064252A, “Substituted N-(carboxymethyl)-3-aminopropan-2-ol derivatives” (Nippon Shinyaku Co., Ltd., priority 1975, dated 1977).
Where two headings read alike, the source gives them in different places.

Columns and labels:
[1] = tested on: serum triglyceride; assay: Blood lipid lowering in 8 week-old male rats having normal serum lipid content: serum triglyceride; type: in vivo, rat; details: 3.5 days, vs non-treated control; for inhibition in vivo at 20 mg/kg/day / inhibition in vivo at 100 mg/kg/day / inhibition in vivo at 10 mg/kg/day: Rattus norvegicus, po, 84 h, read-out: % decrease of serum triglyceride; for inhibition in vivo at 10 mg/kg/day: 10 mg/kg/day oral
Protocol: (§1) 1. Blood lipid lowering activities in 8 week-old male rats having normal serum lipid content.
(§2) The values shown in Table 1 indicate the concentration changes of serum cholesterol and serum triglycride after the treatment with the shown various doses/day for 3.5 days. The mentioned compounds were orally administered to rat's groups consisting of 10 animals through a stomach tube twice a day. Blood was usually withdrawn 4 hours after the last administration. Serum cholesterol concentration was determined by the method of Levine and Zak, and triglyceride by the method of Kassler and Laderer by means of autoanalyzer. In all examples shown in Table 1, % decrease of treated groups are then to the non-treated reference group (control group), where the value of control group is represented as 100%.
(§3) The values in Table 5 indicate the concentration changes of serum cholesterol and the triglyceride after the treatment with the shown various doses per day for 3.5 days. These compounds were orally administered to rat groups consisting of 10 animals through a stomach tube twice a day. Blood was usually withdrawn 4 hours after the last administration. Serum cholesterol concentration was determined by the method of Levine and Zak, and serum triglyceride by the method of Kessler and Lederer by means of autoanalyzer. In all examples shown in Table 1, % decrease of the treated groups are to the non-treated control group where the value of control group is represented as 100%. […] The following examples are given to illustrate the representative embodiment of this invention, but this invention is not limited to these examples.

[2] = tested on: serum cholesterol; assay: Blood lipid lowering in 8 week-old male rats having normal serum lipid content: serum cholesterol; type: in vivo; details: Rattus norvegicus, po, 84 h, 3.5 days, vs non-treated control, read-out: % decrease of serum cholesterol; for inhibition in vivo at 20 mg/kg/day: 20 mg/kg/day oral; for inhibition in vivo at 100 mg/kg/day: 100 mg/kg/day oral; for inhibition in vivo at 10 mg/kg/day: 10 mg/kg/day oral
Protocol: as §1, §2, §3

[3] = tested on: blood cholesterol; assay: Blood cholesterol lowering in thiouracil induced hypercholesterolemia of thiouracil loaded 9 week-old male rats; type: in vivo, rat; details: 4 days, vs thiouracil loaded control
Protocol: 3. Blood cholesterol lowering activities in the thiouracil induced hypercholesterolemia of thiouracil loaded 9 week-old male rats.
The compounds illustrated in Table 3 were orally administered for 4 days from the 4th day to rats given 0.1% thiouracil solution for 3 days as the pretreatment. Fasting for 18 hours after the last administration, blood was withdrawn. In all examples shown in Table 3, % inhibition of treated groups are to the thiouracil loaded control group, in which the changed value of cholesterol before and after the thiouracil load is represented as 100%.

[4] = tested on: blood triglyceride; assay: Blood triglyceride lowering in carbohydrate (fructose) induced hypertriglyceridemia of fructose loaded 9 week-old male rats; type: in vivo, rat; details: 3 days, vs fructose loaded control
Protocol: 2. Blood triglyceride lowering activities in the carbohydrate induced hypertriglyceridemia of fructose loaded 9 week-old rats.
Compounds shown in Table 2 were orally administered to the rat groups consisting of 10 animals for 3 days. Drinking of 10% fructose solution continued for 48 hours prior to sacrifice.
Fasting for 18 hours after the last administration, blood was withdrawn. In all examples shown in Table 2, % inhibitions of the treated groups are to the fructose loaded control group. The changed value of triglyoride content before and after the fructose load in the control group is represented as 100%.

Question: For `COC(=O)CN(CC(O)COc1ccc(C(C)(C)C)cc1)c1ccccc1` (stereo not shown) [Compound 18], which inhibition in vivo at 20 mg/kg/day ([1]; Table 1, 20 mg/kg/day oral) is on record?
Answer: 54.5%

Question: What about the inhibition in vivo at 100 mg/kg/day ([1]; Table 1, 100 mg/kg/day oral) of the same molecule?
Answer: 59.3%

Question: What about the inhibition in vivo at 20 mg/kg/day ([2]; Table 1) of the same molecule?
Answer: 12.4%

Question: What about the inhibition in vivo at 100 mg/kg/day ([2]; Table 1) of the same molecule?
Answer: 14.9%

Question: Which inhibition in vivo at 100 mg/kg/day ([1]; Table 1, 100 mg/kg/day oral) does the source give for `O=C(CN(CC(O)COc1ccc(Cl)cc1)c1ccccc1)NCc1ccccc1` (stereo not shown) [Compound 41] here?
Answer: 53.2%

Question: What about the inhibition in vivo at 100 mg/kg/day ([2]; Table 1) of the same molecule?
Answer: 12.3%

Question: `NC(=O)CN(CC(O)COc1ccc(Cl)cc1)c1ccccc1` (stereo not shown) [Compound 32] was tested. Which inhibition in vivo at 100 mg/kg/day ([1]; Table 1, 100 mg/kg/day oral) did it give?
Answer: 56.6%

Question: What about the inhibition in vivo at 100 mg/kg/day ([2]; Table 1) of the same molecule?
Answer: 29.6%

Question: How did the inhibition in vivo at 100 mg/kg/day ([1]; Table 1, 100 mg/kg/day oral) turn out when `CCN(CC)C(=O)CN(CC(O)COc1ccc(Cl)cc1)c1ccccc1` (stereo not shown) [Compound 35] was run?
Answer: 52.7%

Question: What about the inhibition in vivo at 100 mg/kg/day ([2]; Table 1) of the same molecule?
Answer: 19.8%

Question: Which results are given for `COC(=O)CN(CC(O)COc1ccc(Cl)cc1)c1ccccc1` (stereo not shown) [Compound 4]?
Answer: inhibition ratio (hypocholesterolemic effect) ([3]; 10 mg/kg/day oral): 51.9%; inhibition ratio (hypocholesterolemic effect) ([3]; 30 mg/kg/day oral): 57.9%; inhibition ratio (hypocholesterolemic effect) ([3]; 100 mg/kg/day oral): 85.5%; inhibition in vivo at 10 mg/kg/day ([1]; Table 1): 36.5%; inhibition in vivo at 20 mg/kg/day ([1]; Table 1, 20 mg/kg/day oral): 54.4%; inhibition in vivo at 100 mg/kg/day ([1]; Table 1, 100 mg/kg/day oral): 59%; inhibition in vivo at 10 mg/kg/day ([2]; Table 1): 22.9%; inhibition in vivo at 20 mg/kg/day ([2]; Table 1): 23.4%; inhibition in vivo at 100 mg/kg/day ([2]; Table 1): 39.1%; inhibition ratio (hypotriglyceridemic effect) ([4]; 10 mg/kg/day oral): 46.5%; inhibition ratio (hypotriglyceridemic effect) ([4]; 30 mg/kg/day oral): 69.9%; inhibition ratio (hypotriglyceridemic effect) ([4]; 100 mg/kg/day oral): 93.0%

Question: `O=C(O)CN(CC(O)COc1ccc(Cl)cc1)c1ccccc1` (stereo not shown) [Compound 2] was tested. Which inhibition in vivo at 10 mg/kg/day ([1]; Table 1) did it give?
Answer: 53.6%

Question: What about the “% decrease of serum triglyceride” value ([1]; Table 1, 20 mg/kg/day oral, 20 mg/kg/day) of the same molecule?
Answer: 73.2%

Question: What about the “% decrease of serum triglyceride” value ([1]; Table 1, 100 mg/kg/day oral, 100 mg/kg/day) of the same molecule?
Answer: 72.0%

Question: And the inhibition in vivo at 10 mg/kg/day ([2]; Table 1)?
Answer: 15.5%

Question: And the inhibition in vivo at 20 mg/kg/day ([2]; Table 1)?
Answer: 28.8%

Question: And the inhibition in vivo at 100 mg/kg/day ([2]; Table 1)?
Answer: 33.5%

Question: `CCCCOC(=O)CN(CC(O)COc1ccc(Cl)cc1)c1ccccc1` (stereo not shown) [Compound 10] was tested. Which “inhibition ratio (hypocholesterolemic effect)” value ([3]; 10 mg/kg/day oral) did it give?
Answer: 52.6%

Question: And the “inhibition ratio (hypocholesterolemic effect)” value ([3]; 30 mg/kg/day oral)?
Answer: 87.4%

Question: What about the “inhibition ratio (hypocholesterolemic effect)” value ([3]; 100 mg/kg/day oral) of the same molecule?
Answer: 94.9%

Question: And the “inhibition ratio (hypotriglyceridemic effect)” value ([4]; 10 mg/kg/day oral)?
Answer: 48.5%

Question: What about the “inhibition ratio (hypotriglyceridemic effect)” value ([4]; 30 mg/kg/day oral) of the same molecule?
Answer: 61.5%

Question: And the “inhibition ratio (hypotriglyceridemic effect)” value ([4]; 100 mg/kg/day oral)?
Answer: 63.3%

Question: How did the “inhibition ratio (hypocholesterolemic effect)” value ([3]; 3 mg/kg/day oral) turn out when `N[C@@H](Cc1cc(I)c(Oc2cc(I)c(O)c(I)c2)c(I)c1)C(=O)O` [L-thyroxine, reference compound] was run?
Answer: 54.8%

Question: What does the source list for `COC(=O)CN(CC(COc1ccc(Cl)cc1)OC(C)=O)c1ccccc1` (stereo not shown) [Compound 50, 2-acetoxy-1-(p-chlorophenoxy)-3-(N-carbomethoxymethyl-N-phenylamino) propane]?
Answer: inhibition in vivo at 20 mg/kg/day ([1]; Table 5, 20 mg/kg/day oral): 65.4%; inhibition in vivo at 100 mg/kg/day ([1]; Table 5, 100 mg/kg/day oral): 66%; inhibition in vivo at 20 mg/kg/day ([2]; Table 5): 21.5%; inhibition in vivo at 100 mg/kg/day ([2]; Table 5): 30.3%

Question: What does the source list for `COC(=O)CN(CC(O)COc1ccccc1Cl)c1ccccc1` (stereo not shown) [Compound 11]?
Answer: inhibition in vivo at 20 mg/kg/day ([1]; Table 1, 20 mg/kg/day oral): 65.4%; inhibition in vivo at 100 mg/kg/day ([1]; Table 1, 100 mg/kg/day oral): 66%; inhibition in vivo at 20 mg/kg/day ([2]; Table 1): 21.5%; inhibition in vivo at 100 mg/kg/day ([2]; Table 1): 30.3%

Question: What does the source list for `CCOC(=O)CN(CC(COc1ccc(Cl)cc1)OC(=O)c1cccnc1)c1ccccc1` (stereo not shown) [Compound 57]?
Answer: inhibition in vivo at 20 mg/kg/day ([1]; Table 5, 20 mg/kg/day oral): 54.5%; inhibition in vivo at 100 mg/kg/day ([1]; Table 5, 100 mg/kg/day oral): 59.3%; inhibition in vivo at 20 mg/kg/day ([2]; Table 5): 12.4%; inhibition in vivo at 100 mg/kg/day ([2]; Table 5): 14.9%

Question: With `CCCOC(=O)CN(CC(O)COc1ccc(Cl)cc1)c1ccccc1` (stereo not shown) [Compound 6] as the molecule, how does the “inhibition ratio (hypocholesterolemic effect)” value ([3]; 10 mg/kg/day oral) read?
Answer: 58.4%

Question: What about the “inhibition ratio (hypocholesterolemic effect)” value ([3]; 30 mg/kg/day oral) of the same molecule?
Answer: 70.1%

Question: And the “inhibition ratio (hypocholesterolemic effect)” value ([3]; 100 mg/kg/day oral)?
Answer: 94.9%

Question: What about the inhibition in vivo at 20 mg/kg/day ([1]; Table 1, 20 mg/kg/day oral) of the same molecule?
Answer: 49.6%

Question: And the inhibition in vivo at 100 mg/kg/day ([1]; Table 1, 100 mg/kg/day oral)?
Answer: 72.4%

Question: What about the inhibition in vivo at 20 mg/kg/day ([2]; Table 1) of the same molecule?
Answer: 34.7%

Question: What about the inhibition in vivo at 100 mg/kg/day ([2]; Table 1) of the same molecule?
Answer: 41.2%

Question: What about the “inhibition ratio (hypotriglyceridemic effect)” value ([4]; 10 mg/kg/day oral) of the same molecule?
Answer: 55.9%

Question: What about the “inhibition ratio (hypotriglyceridemic effect)” value ([4]; 30 mg/kg/day oral) of the same molecule?
Answer: 67.6%

Question: And the “inhibition ratio (hypotriglyceridemic effect)” value ([4]; 100 mg/kg/day oral)?
Answer: 85.7%

Question: With `CCOC(=O)C(C)(C)Oc1ccc(Cl)cc1` [clofibrate, reference compound] as the molecule, how does the inhibition in vivo at 10 mg/kg/day ([1]; Table 1) read?
Answer: 6.2%

Question: What about the inhibition in vivo at 20 mg/kg/day ([1]; Table 1, 20 mg/kg/day oral) of the same molecule?
Answer: 36.3%

Question: And the inhibition in vivo at 100 mg/kg/day ([1]; Table 1, 100 mg/kg/day oral)?
Answer: 51.7%

Question: What about the inhibition in vivo at 20 mg/kg/day ([1]; Table 5, 20 mg/kg/day oral) of the same molecule?
Answer: 36.3%

Question: And the inhibition in vivo at 100 mg/kg/day ([1]; Table 5, 100 mg/kg/day oral)?
Answer: 51.7%

Question: And the inhibition in vivo at 10 mg/kg/day ([2]; Table 1)?
Answer: 5.8%

Question: And the inhibition in vivo at 20 mg/kg/day ([2]; Table 1)?
Answer: 12.6%

Question: And the inhibition in vivo at 100 mg/kg/day ([2]; Table 1)?
Answer: 37%

Question: And the inhibition in vivo at 20 mg/kg/day ([2]; Table 5)?
Answer: 12.6%

Question: What about the inhibition in vivo at 100 mg/kg/day ([2]; Table 5) of the same molecule?
Answer: 37%

Question: And the “inhibition ratio (hypotriglyceridemic effect)” value ([4]; 10 mg/kg/day oral)?
Answer: -16.6%

Question: And the “inhibition ratio (hypotriglyceridemic effect)” value ([4]; 30 mg/kg/day oral)?
Answer: -2.3%

Question: And the “inhibition ratio (hypotriglyceridemic effect)” value ([4]; 100 mg/kg/day oral)?
Answer: 23.2%

Question: For `CCOC(=O)CN(CC(O)COc1ccc(Cl)cc1)c1ccccc1` (stereo not shown) [Compound 5], which “inhibition ratio (hypocholesterolemic effect)” value ([3]; 10 mg/kg/day oral) is on record?
Answer: 49.9%

Question: What about the “inhibition ratio (hypocholesterolemic effect)” value ([3]; 30 mg/kg/day oral) of the same molecule?
Answer: 69.2%

Question: And the “inhibition ratio (hypocholesterolemic effect)” value ([3]; 100 mg/kg/day oral)?
Answer: 100.7%
